Measured values published in patent EP0342577B1, “Use of dihydropyridine derivatives for the prophylaxis or treatment of cerebral circulation disorders” (YOSHITOMI PHARMACEUTICAL INDUSTRIES, LTD., priority 1988, dated 1989).

Experiments:
[1] = system: Coronary blood flow amount; test: Selectivity in cerebral hyperkinemic action: coronary blood flow amount (electromagnetic flow meter, left coronary artery circumflex ramus); assay type: in vivo; settings: dogs, intravenous; for Coronary blood flow amount ED200: dose at which the rate of increase is 200%
Procedure: (§1) The selectivity in cerebral hyperkinemic action was studied by examining the rates of increase in coronary blood flow amount and cerebral blood flow amount as to various dihydropyridine derivatives.
(§2) Various dihydropyridine derivatives were intravenously administered to dogs (weighing 9 - 16 kg, 4 animals per group) at a dose of 1 - 100 µg/kg body weight. At the lapse of 1, 3, 5, 10, 30, 60, 90 and 120 minutes after the intravenous administration, the coronary blood flow amount and cerebral blood flow amount were measured, and the rates of increase in the blood flow amount were estimated.
Coronary blood flow was measured by equipping the left coronary artery circumflex ramus with the probe of the electromagnetic flow meter, and recorded on the polygraph.
(§3) The ED200 (µg/kg body weight) indicates the dose at which the rate of increase is 200%.

[2] = system: Cerebral blood flow amount; test: Selectivity in cerebral hyperkinemic action: cerebral blood flow amount (electromagnetic flow meter, left vertebral artery); assay type: in vivo; settings: dogs, intravenous; for Cerebral blood flow amount ED200: dose at which the rate of increase is 200%
Procedure: as §1, §2
(§4) Cerebral blood flow was measured by equipping the left vertebral artery with the probe of the electromagnetic flow meter, and recorded continuously on the polygraph.
as §3

[3] = system: Cerebral blood flow amount; test: Duration time of cerebral hyperkinemic action: cerebral blood flow with the lapse of time; assay type: in vivo; set-up: unit not given here; settings: dogs, intravenous, 30 µg/kg body weight
Procedure: as §2, §4
By examining the rate of increase in cerebral blood flow by various dihydropyridine derivatives with the lapse of time, the duration of cerebral hyperkinemic action was studied.

[4] = system: both common carotid arteries-ligated rats; test: Inhibitory effect on symptoms of both common carotid arteries-ligated rats; assay type: in vivo, Spontaneously hypertensive rats (SHR·SR); settings: SHR·SR rats, oral, dose 0.1 mg/kg, given one hour before ligation; neural symptom score 0 (normal) to 4 (death) two hours after skin suture; control (None) 2.8
Procedure: Spontaneously hypertensive rats (SHR·SR; Japan Charles River Co.) were used for the experiment (9-10 rats per group).
The compound 2-2 of the present invention was orally administered forsively to the rats at a dose of 10 ml/kg. To the control group was administered 0.3% Tween® 80 solely at a dose of 10 ml/kg. One hour later, cervical part was incised and both common carotid arteries were ligated with a suture thread almost simultaneously. Two hours after skin suture, observation was made for their neural symptom and/or death. The results are expressed in five-rank scores below.

Compound	Coronary blood flow amount Increase rate (%) ([1]; dose 10 µg/kg body weight)	Coronary blood flow amount Increase rate (%) ([1]; dose 30 µg/kg body weight)	Coronary blood flow amount Increase rate (%) ([1]; dose 100 µg/kg body weight)	Coronary blood flow amount ED200 [1] [µg/kg body weight]	Cerebral blood flow amount Increase rate (%) ([2]; dose 10 µg/kg body weight)	Cerebral blood flow amount Increase rate (%) ([2]; dose 30 µg/kg body weight)	Cerebral blood flow amount Increase rate (%) ([2]; dose 100 µg/kg body weight)	Cerebral blood flow amount ED200 [2] [µg/kg body weight]	Rate of increase in cerebral blood flow amount ([3]; 5 min after administration)	Rate of increase in cerebral blood flow amount ([3]; 10 min after administration)	Rate of increase in cerebral blood flow amount ([3]; 30 min after administration)	Rate of increase in cerebral blood flow amount ([3]; 60 min after administration)	Rate of increase in cerebral blood flow amount ([3]; 120 min after administration)	Average score [4]	Coronary blood flow amount Increase rate (%) ([1]; dose 3 µg/kg body weight)	Cerebral blood flow amount Increase rate (%) ([2]; dose 3 µg/kg body weight)	Coronary blood flow amount Increase rate (%) ([1]; dose 1 µg/kg body weight)	Cerebral blood flow amount Increase rate (%) ([2]; dose 1 µg/kg body weight)
COC(=O)C1=C(C)NC(C)=C(C(=O)OCCc2ccc(N3CCN(C(c4ccccc4)c4ccccc4)CC3)cc2)C1c1cc(C#N)ccn1 (stereo not drawn) [Compound 1-2, 2-[p-(4-Benzhydrylpiperazino)phenyl]ethyl methyl 2,6-dimethyl-4-(4-cyano-2-pyridyl)-1,4-dihydropyridine-3,5-dicarboxylate]	131	156	246	48	186	223	385	15	183	222	190	151	132					
COC(=O)C1=C(C)NC(C)=C(C(=O)OCCc2ccc(N3CCN(C(c4ccccc4)c4ccccc4)CC3)cc2)C1c1cccc([N+](=O)[O-])c1 (stereo not drawn) [Compound 2-2, 2-[p-(4-Benzhydrylpiperazino)phenyl]ethyl methyl 2,6-dimethyl-4-(3-nitrophenyl)-1,4-dihydropyridine-3,5-dicarboxylate]	125	174	207	75	197	301	433	11	137	170	285	300	237	1.7				
COC(=O)C1=C(C)NC(C)=C(C(=O)OCCN(C)Cc2ccccc2)C1c1cccc([N+](=O)[O-])c1 (stereo not drawn) [Nicardipine, reference compound]	206	240		9.7	197	238		9.7	237	189	129	109			154	165		
COCCOC(=O)C1=C(C)NC(C)=C(C(=O)OC(C)C)C1c1cccc([N+](=O)[O-])c1 (stereo not drawn) [Nimodipine, reference compound]	191			16	196			13	163	152	129	113			141	167	125	146
